Data set [1] concerns the target T1, Acetylcholinesterase (Electrophorus electricus, UniProt O42275).
Description: Inhibition of electric eel AChE using acetylthiocholine iodide as substrate incubated for 5 mins followed by substrate addition measured for 1 min by Ellman's method
The target of another data set is Cholinesterase (Homo sapiens, UniProt P06276).
Data set [2] in a line: in vitro. Particulars: human, HepG2 cells.
Description: Cytotoxicity against human HepG2 cells assessed as cell viability at 1 uM after 24 hrs by MTT assay
A short description of data set [3]: in vitro. Particulars: human, HepG2 cells. The source holds these as a separate data set.
Description: Cytotoxicity against human HepG2 cells assessed as cell viability at 25 uM after 24 hrs by MTT assay
Data set [4] can be described thus: in vitro. Particulars: human, HepG2 cells. This is another data set of the same source.
Description: Cytotoxicity against human HepG2 cells assessed as cell viability at 5 uM after 24 hrs by MTT assay
The nature of data set [5]: in vitro. The following applies: human, HepG2 cells. This is another data set of the same source.
Description: Cytotoxicity against human HepG2 cells assessed as cell viability at 50 uM after 24 hrs by MTT assay
A short description of data set [6]: in vitro. Particulars: human, HepG2 cells. This is another data set of the same source.
Description: Cytotoxicity against human HepG2 cells assessed as cell viability at 10 uM after 24 hrs by MTT assay
A short description of data set [7]: in vitro. Particulars: human, HepG2 cells. The source holds these as a separate data set.
Description: Cytotoxicity against human HepG2 cells assessed as cell viability at 300 uM after 24 hrs by MTT assay
Data set [8] can be described thus: in vitro. Particulars: human, HepG2 cells. The source holds these as a separate data set.
Description: Cytotoxicity against human HepG2 cells assessed as cell viability at 100 uM after 24 hrs by MTT assay
Data set [9] addresses T1, Acetylcholinesterase. Nature of the data set: Mixed type inhibition of electric eel AChE using acetylthiocholine iodide as substrate incubated for 5 mins followed by substrate addition measured for 1 min by Lineweaver-Burk plot analysis.
The target of data set [10] is Acetylcholinesterase (Electrophorus electricus) (UniProt O42275). Nature of the data set: Potency index, ratio of tacrine IC50 to compound IC50 for electric eel AChE.

Consider 29 compounds from ChEMBL document CHEMBL3870313, “Synthesis and structure-activity relationship study of tacrine-based pyrano[2,3-c]pyrazoles targeting AChE/BuChE and 15-LOX” (Eur J Med Chem, 2016).

T1 sequence (O42275 whole entry): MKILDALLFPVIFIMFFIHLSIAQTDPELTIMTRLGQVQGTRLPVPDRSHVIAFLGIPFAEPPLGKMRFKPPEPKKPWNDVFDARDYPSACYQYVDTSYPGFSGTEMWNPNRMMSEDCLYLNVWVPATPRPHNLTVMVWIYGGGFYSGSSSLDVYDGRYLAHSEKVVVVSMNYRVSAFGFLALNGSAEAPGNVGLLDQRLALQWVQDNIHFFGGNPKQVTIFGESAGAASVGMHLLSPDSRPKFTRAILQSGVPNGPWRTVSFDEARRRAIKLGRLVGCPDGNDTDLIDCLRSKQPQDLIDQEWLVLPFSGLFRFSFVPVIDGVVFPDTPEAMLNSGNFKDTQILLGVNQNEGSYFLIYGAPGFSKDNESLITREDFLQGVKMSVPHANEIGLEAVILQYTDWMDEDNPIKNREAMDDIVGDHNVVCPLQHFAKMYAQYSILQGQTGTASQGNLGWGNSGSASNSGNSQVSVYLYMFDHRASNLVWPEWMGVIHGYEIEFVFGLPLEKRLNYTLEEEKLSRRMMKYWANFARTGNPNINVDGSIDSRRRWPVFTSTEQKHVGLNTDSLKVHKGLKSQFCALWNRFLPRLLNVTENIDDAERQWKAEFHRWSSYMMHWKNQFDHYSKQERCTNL
Cholinesterase, sequence (P06276 whole entry): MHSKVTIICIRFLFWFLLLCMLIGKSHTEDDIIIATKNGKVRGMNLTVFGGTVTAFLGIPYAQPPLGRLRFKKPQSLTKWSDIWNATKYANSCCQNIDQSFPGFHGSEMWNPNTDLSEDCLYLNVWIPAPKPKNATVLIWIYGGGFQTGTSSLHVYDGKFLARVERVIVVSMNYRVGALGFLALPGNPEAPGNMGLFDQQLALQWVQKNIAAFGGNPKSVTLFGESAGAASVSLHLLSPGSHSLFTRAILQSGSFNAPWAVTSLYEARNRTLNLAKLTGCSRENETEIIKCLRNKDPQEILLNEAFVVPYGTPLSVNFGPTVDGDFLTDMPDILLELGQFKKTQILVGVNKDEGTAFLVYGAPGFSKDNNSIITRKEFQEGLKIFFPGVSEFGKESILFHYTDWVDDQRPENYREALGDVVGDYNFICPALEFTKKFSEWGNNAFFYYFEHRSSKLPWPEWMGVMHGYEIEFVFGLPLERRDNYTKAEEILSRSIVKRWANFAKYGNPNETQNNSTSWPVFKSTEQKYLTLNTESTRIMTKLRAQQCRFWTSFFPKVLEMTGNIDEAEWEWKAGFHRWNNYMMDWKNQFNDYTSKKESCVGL
Acetylcholinesterase (Electrophorus electricus), sequence (O42275 24-633 limits assumed): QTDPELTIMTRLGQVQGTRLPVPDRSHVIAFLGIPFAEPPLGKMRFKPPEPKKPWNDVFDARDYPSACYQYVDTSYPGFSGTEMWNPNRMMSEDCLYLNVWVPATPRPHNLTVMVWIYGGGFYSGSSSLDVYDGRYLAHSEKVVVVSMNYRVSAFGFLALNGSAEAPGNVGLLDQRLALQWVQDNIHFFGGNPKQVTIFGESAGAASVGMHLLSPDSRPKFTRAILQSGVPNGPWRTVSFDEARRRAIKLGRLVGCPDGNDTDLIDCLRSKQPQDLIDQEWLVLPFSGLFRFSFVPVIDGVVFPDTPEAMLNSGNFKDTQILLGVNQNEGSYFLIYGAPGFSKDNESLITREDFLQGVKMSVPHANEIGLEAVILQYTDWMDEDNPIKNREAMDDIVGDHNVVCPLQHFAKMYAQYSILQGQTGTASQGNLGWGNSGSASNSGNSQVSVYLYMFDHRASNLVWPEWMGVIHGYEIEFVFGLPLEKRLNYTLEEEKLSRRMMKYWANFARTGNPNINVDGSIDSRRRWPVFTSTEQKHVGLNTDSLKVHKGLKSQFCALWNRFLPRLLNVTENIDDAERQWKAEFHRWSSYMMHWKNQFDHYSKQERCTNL

In general, IC50 refers to the concentration that gives 50% inhibition. Low readings indicate greater potency, high ones weaker potency. `CCCc1n[nH]c2c1C(c1ccc(OC)c(OC)c1)c1c(nc3c(c1N)CCCC3)O2` (stereo unspecified): the concentration for half-maximal inhibition (IC50) on Acetylcholinesterase [1] was 1470 nM; against Cholinesterase, 365 nM.
The matching figures for `CCCc1n[nH]c2c1C(c1ccc(Cl)cc1)c1c(nc3c(c1N)CCCCC3)O2` (stereo unspecified): 1060 nM and 75 nM.
In general, viability refers to a read-out of living cells in per cent, often relative to untreated cells. As to `COc1ccc(C2c3c(-c4ccccc4)n[nH]c3Oc3cc4c(c(N)c32)CCCC4)cc1` (stereo unspecified), the half-maximal inhibitory concentration (IC50) on Acetylcholinesterase [1] was found to be 81 nM; at Cholinesterase, 7 nM. For the same compound, the viability at 24 h, 1 µM in the data set “in vitro [2]” came out at 99.1%. In addition, the viability at 24 h, 25 µM in “in vitro [3]” worked out at 99.7%. Besides, the viability at 24 h, 5 µM in the data set “in vitro [4]” was 99.4%. Also, the viability at 24 h, 50 µM in “in vitro [5]” stood at 98.2%. Besides, the viability at 24 h, 10 µM in “in vitro [6]” worked out at 99.7%. The viability at 24 h, 300 µM in “in vitro [7]” was 71.3%. Further, the viability at 24 h, 100 µM in “in vitro [8]” was 85.6%.
Regarding `CCCc1n[nH]c2c1C(c1ccc(C)cc1)c1c(nc3c(c1N)CCCC3)O2` (stereo unspecified), the 50% inhibitory concentration (IC50) was determined as 120 nM against Acetylcholinesterase [1] and 13 nM against Cholinesterase.
The matching figures for `Cc1ccc(C2c3c(-c4ccccc4)n[nH]c3Oc3cc4c(c(N)c32)CCCC4)cc1` (stereo unspecified): 98 nM and 11 nM.
Take `CCCc1n[nH]c2c1C(c1ccc(OC)cc1)c1c(nc3c(c1N)CCCC3)O2` (stereo unspecified): the IC50 on Acetylcholinesterase [1] is 52 nM; against Cholinesterase, 6 nM.
As to `CCCc1n[nH]c2c1C(c1ccc([N+](=O)[O-])cc1)c1c(nc3c(c1N)CCCC3)O2` (stereo unspecified), the IC50 at Acetylcholinesterase [1] amounted to 744 nM; against Cholinesterase, 29 nM.
Taken in the same sequence, the figures for `CCCc1n[nH]c2c1C(c1cc(OC)c(OC)c(OC)c1)c1c(nc3c(c1N)CCCC3)O2` (stereo unspecified) were 900 nM and 42 nM.
The matching figures for `CCCc1n[nH]c2c1C(c1cccc([N+](=O)[O-])c1)c1c(nc3c(c1N)CCCC3)O2` (stereo unspecified): 423 nM and 12 nM.
Taken in the same sequence, the figures for `Nc1c2c(cc3c1C(c1ccc(Cl)cc1)c1c(-c4ccccc4)n[nH]c1O3)CCCC2` (stereo unspecified) were 260 nM and 21 nM.
With `Nc1c2c(nc3c1C(c1ccc(Cl)cc1)c1c(-c4ccccc4)n[nH]c1O3)CCSC2` (stereo unspecified), the values for the half-inhibitory concentration (IC50) against Acetylcholinesterase [1] and on Cholinesterase were 450 nM and 30 nM, respectively.
The matching figures for `CCCc1n[nH]c2c1C(c1ccc(C#N)cc1)c1c(nc3c(c1N)CCCC3)O2` (stereo unspecified): 954 nM and 37 nM.
Regarding `CCCc1n[nH]c2c1C(c1ccc(N(C)C)cc1)c1c(nc3c(c1N)CCCC3)O2` (stereo unspecified), the IC50 is 347 nM against Acetylcholinesterase [1] and 24 nM against Cholinesterase.
Taken in the same sequence, the figures for `CCCc1n[nH]c2c1C(c1ccc(SC)cc1)c1c(nc3c(c1N)CCCC3)O2` (stereo unspecified) were 201 nM and 8 nM.
Taken in the same sequence, the figures for `CCCc1n[nH]c2c1C(c1ccc(Cl)cc1)c1c(nc3c(c1N)CSCC3)O2` (stereo unspecified) were 300 nM and 15 nM.
For the compound `Nc1c2c(nc3c1C(c1ccccc1)c1c(-c4ccco4)nn(-c4ccccc4)c1O3)CCCC2` (stereo unspecified), the 50% inhibitory concentration (IC50) was 72 nM against Acetylcholinesterase [1] and 5 nM against Cholinesterase. The viability at 24 h, 1 µM in the data set “in vitro [2]” was found to be 99.6%. For the same compound, the viability at 24 h, 25 µM in the data set “in vitro [3]” was 85%. In addition, in “in vitro [4]”, the viability at 24 h, 5 µM was found to be 95.8%. In addition, the viability at 24 h, 50 µM in the data set “in vitro [5]” was 81.4%. Moreover, the viability at 24 h, 10 µM in “in vitro [6]” came out at 90.3%. Also, the viability at 24 h, 300 µM in “in vitro [7]” was 67.4%. Moreover, in “in vitro [8]”, the viability at 24 h, 100 µM was determined as 75.7%.
`Nc1c2c(nc3c1C(c1ccccc1)c1c(-c4ccco4)n[nH]c1O3)CCCC2` (stereo unspecified): the IC50 against Acetylcholinesterase [1] was determined as 100 nM; against Cholinesterase, 15 nM.
Regarding `COc1cc(C2c3c(-c4ccccc4)n[nH]c3Oc3nc4c(c(N)c32)CCCC4)cc(OC)c1OC` (stereo unspecified), the half-maximal inhibitory concentration (IC50) against Acetylcholinesterase [1] came to 1030 nM; on Cholinesterase it was 65 nM.
The matching figures for `CCCc1n[nH]c2c1C(c1ccc(Cl)cc1)c1c(nc3c(c1N)CCCC3)O2` (stereo unspecified): 200 nM and 10 nM.
Taken in the same sequence, the figures for `Nc1c2c(cc3c1C(c1ccccc1)c1c(-c4ccccc4)n[nH]c1O3)CCCC2` (stereo unspecified) were 140 nM and 8 nM.
The matching figures for `CCCc1n[nH]c2c1C(c1ccccc1)c1c(nc3c(c1N)CCCCC3)O2` (stereo unspecified): 650 nM and 43 nM.
Take `CCCc1n[nH]c2c1C(c1ccccc1OC)c1c(nc3c(c1N)CCCC3)O2` (stereo unspecified): the concentration for half-maximal inhibition (IC50) came out at 471 nM at Acetylcholinesterase [1] and 18 nM on Cholinesterase.
For `Nc1c2c(nc3c1C(c1ccccc1)c1c(-c4ccccc4)n[nH]c1O3)CCCCC2` (stereo unspecified), the IC50 at Acetylcholinesterase [1] amounted to 54 nM; on Cholinesterase, 9 nM.
Taken in the same sequence, the figures for `CC(C)C1c2c(-c3ccccc3)n[nH]c2Oc2nc3c(c(N)c21)CCCC3` (stereo unspecified) were 15000 nM and 570 nM.
For orientation: Ki means the dissociation constant of the complex between target and ligand, obtained from inhibition or displacement. Regarding `Nc1c2c(cc3c1C(c1ccc(F)cc1)c1c(-c4ccccc4)n[nH]c1O3)CCCC2` (stereo unspecified), the Ki on Acetylcholinesterase [9] amounted to 490 nM. For the same compound, the IC50 was 34 nM on Acetylcholinesterase [1] and 7 nM against Cholinesterase. In addition, the viability at 24 h, 1 µM in “in vitro [2]” was 101%. For the same compound, the viability at 24 h, 25 µM in “in vitro [3]” is 99.7%. Besides, the viability at 24 h, 5 µM in the data set “in vitro [4]” was determined as 100%. For the same compound, in [10], the Ratio IC50 worked out at 6. The viability at 24 h, 50 µM in the data set “in vitro [5]” is 98.4%. The viability at 24 h, 10 µM in “in vitro [6]” was 100%. In the data set “in vitro [7]”, the viability at 24 h, 300 µM was 73.4%. Also, the viability at 24 h, 100 µM in the data set “in vitro [8]” turned out to be 89.9%.
Consider `CCCc1n[nH]c2c1C(c1cccc(Br)c1)c1c(nc3c(c1N)CCCC3)O2` (stereo unspecified), for which the results for the concentration for half-maximal inhibition (IC50) at Acetylcholinesterase [1] and at Cholinesterase were 472 nM and 15 nM, respectively.
On to `CCCc1n[nH]c2c1C(c1ccc(C)cc1)c1c(nc3c(c1N)CSCC3)O2` (stereo unspecified), for which the results for the concentration for half-maximal inhibition (IC50) against Acetylcholinesterase [1] and on Cholinesterase were 1030 nM and 73 nM, respectively.
In the case of `Nc1c2c(nc3c1C(c1ccc(Cl)cc1)c1c(-c4ccccc4)n[nH]c1O3)CCCCC2` (stereo unspecified), the IC50 at Acetylcholinesterase [1] worked out at 1920 nM; on Cholinesterase, 77 nM.
Taken in the same sequence, the figures for `Nc1c2c(nc3c1C(c1ccccc1)c1c(-c4ccccc4)nn(-c4ccccc4)c1O3)CCCC2` (stereo unspecified) were greater than 200000 nM and greater than 200000 nM.
